Target: T1, 15-PGDH de type 1 (Homo sapiens, UniProt P15428)
T1 construct: made in house
T1 sequence (P15428 1-266): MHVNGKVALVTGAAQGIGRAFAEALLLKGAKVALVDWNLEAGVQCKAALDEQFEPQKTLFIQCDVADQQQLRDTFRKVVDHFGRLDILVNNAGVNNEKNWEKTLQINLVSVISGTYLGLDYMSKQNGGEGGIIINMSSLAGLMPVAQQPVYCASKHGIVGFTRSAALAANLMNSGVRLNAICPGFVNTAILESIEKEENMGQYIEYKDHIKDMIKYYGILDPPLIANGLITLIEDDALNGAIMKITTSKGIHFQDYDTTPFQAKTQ
Experiment: Test on 15-PGDH type 1: spectrophotometric enzyme inhibition (340 nm, NAD+/PGE2)
Format: biochemical
Conditions: concentration reducing the enzymatic activity of 15-PGDH by 50%; Tris 100 mM pH 7,4, 37°C, 50 µM Prostaglandine E2, 1,5 mM β-NAD
Method: L'enzyme 15-PGDH est obtenue comme décrit dans la demande FR 02/05067 déposée au nom de L'Oréal, en suspension dans un milieu adapté à une concentration de 0,3 mg/mL puis bloquée à - 80°C. Pour les besoins du test, cette suspension est décongelée et stockée dans de la glace.
Par ailleurs on prépare un tampon Tris 100 mM, pH = 7,4, contenant 0,1 mM de dithiothréitol (D5545, Sigma-Aldrich, L'isle D'Abeau Chesne, BP 701, 38297, Saint Quentin Fallavier), 1,5 mM de β-NAD (N6522, Sigma-Aldrich, L'isle D'Abeau Chesne, BP 701, 38297, Saint Quentin Fallavier), 50 µM de Prostaglandine E2 (P4172, Sigma-Aldrich, L'isle D'Abeau Chesne, BP 701, 38297, Saint Quentin Fallavier).
Dans la cuve d'un spectrophotomètre (Perkin-Elmer, Lambda 2) thermostaté à 37°C, dont la longueur d'onde de mesure est réglée à 340 nm, sont introduits 0,965 ml de ce tampon (préalablement porté à 37°C). 0,035 mL de suspension enzymatique à 37°C sont introduits dans la cuve concomitamment à l'enregistrement ( correspondant à une augmentation de la densité optique à 340 nm). La vitesse maximale de réaction est relevée.
Les valeurs essais (contenant les composés de formule (I)) sont comparées à la valeur témoin (sans composé de formule (I)); les résultats indiqués représentent soit le pourcentage d'inhibition de l'activité enzymatique de 15-PGDH pour une concentration donnée de composé de formule (I), soit la concentration à laquelle le composé de formule (I) réduit de 50% l'activité enzymatique de 15-PGDH, à savoir IC50dh.

IC50 [nM] | SMILES
1210 | O=C1NC(=O)C(Cc2ccccc2Oc2ccc(Cl)cc2Cl)S1 (stereo not shown) [compound 2]
2750 | O=C1NC(=O)C(Cc2ccccc2Oc2ccccc2)S1 (stereo not shown) [compound 3]
400 | CC(C)(C)c1ccc(Oc2ccccc2CC2SC(=O)NC2=O)cc1 (stereo not shown) [compound 4, 5-[2-(4-tert-butylphenoxy)benzyl]-1,3-thiazolidine-2,4-dione]
580 | CC(C)(C)c1ccc(Oc2cccc(CC3SC(=O)NC3=O)c2)cc1 (stereo not shown) [compound 5]
